# Data published in paper PMC6273012, “New Iridoid Glucosides from Caryopteris incana (Thunb.) Miq. and Their α-Glucosidase Inhibitory Activities” (Molecules, 2016).
# Entries after “also recorded” stand apart in the source; their conditions may differ.
# Molecular target: α-glucosidase from Saccharomyces cerevisiae (Saccharomyces cerevisiae, UniProt P53341)
# Assay: α-glucosidase inhibition assay (pNPG substrate)
# Format: biochemical
# Conditions: yeast α-glucosidase; acarbose as positive control
# Protocol: The α-glucosidase inhibition assay was performed according to a slightly modified, previously reported method; α-Glucosidase (0.1 U/mL) was dissolved in potassium phosphate buffer (pH 6.8) as the enzyme solution. The tested compounds (50 μL, 5 mM) dissolved in potassium phosphate buffer containing 3% DMSO were mixed with 50 μL of enzyme solution. After incubation at 37 °C for 10 min, a p-nitrophenyl-α-glucopyranoside (pNPG) solution (100 μL) (5.0 mM pNPG in 0.1 M potassium phosphate buffer (pH 6.8)) was added. The enzymatic reaction proceeded at 37 °C for 20 min and was terminated by the addition of 100 μL of 0.2 M Na2CO3. 4-nitrophenol absorption was immediately measured at 405 nm by using a microplate reader. The experiments were performed in triplicate.
# Chain of α-glucosidase from Saccharomyces cerevisiae (P53341 whole entry): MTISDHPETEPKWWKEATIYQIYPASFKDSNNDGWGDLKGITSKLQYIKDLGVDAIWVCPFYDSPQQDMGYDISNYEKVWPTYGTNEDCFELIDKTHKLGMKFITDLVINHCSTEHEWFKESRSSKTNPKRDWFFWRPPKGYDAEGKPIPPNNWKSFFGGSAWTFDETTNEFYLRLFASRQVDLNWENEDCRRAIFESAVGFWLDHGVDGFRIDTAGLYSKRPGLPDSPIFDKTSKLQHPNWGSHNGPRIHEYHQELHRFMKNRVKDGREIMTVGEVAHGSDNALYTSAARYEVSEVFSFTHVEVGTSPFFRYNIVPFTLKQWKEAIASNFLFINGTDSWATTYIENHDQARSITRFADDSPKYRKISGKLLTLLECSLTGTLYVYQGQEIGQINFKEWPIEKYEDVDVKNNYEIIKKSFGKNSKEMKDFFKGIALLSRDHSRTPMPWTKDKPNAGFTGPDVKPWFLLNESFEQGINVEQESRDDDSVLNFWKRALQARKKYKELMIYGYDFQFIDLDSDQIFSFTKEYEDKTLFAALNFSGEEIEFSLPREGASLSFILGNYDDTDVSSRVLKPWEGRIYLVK
row,Compound,α-glucosidase inhibitory effect (in words)
1,"CC(=O)O[C@@]1(C)C[C@@H](OC(=O)C2=CO[C@@H](O[C@@H]3O[C@H](CO)[C@@H](O)[C@H](O)[C@H]3OC(=O)/C=C\c3ccc(O)cc3)[C@@H]3[C@H](C)CC[C@H]23)[C@@H]2C=CO[C@@H](O[C@@H]3O[C@H](CO)[C@@H](O)[C@H](O)[C@H]3O)[C@@H]21 [Compound 4, 2′′′-O-(Z)-p-coumaroyl caryocanoside B]",stronger inhibitory effects against α-glucosidase than the positive control; also recorded: potent effect
2,"CC(CO)c1cc2c(c(O)c1O[C@@H]1O[C@H](CO)[C@@H](O)[C@H](O)[C@H]1O)[C@@]1(C)CCC[C@](C)(CO[C@@H]3O[C@H](CO)[C@@H](O)[C@H](O)[C@H]3O)[C@@H]1CC2 (some centres unmarked) [Compound 10, ajugaside A]",stronger inhibitory effects against α-glucosidase than the positive control
